Source: patent publication US8367707B2, “Pest control agents” (Meiji Seika Pharma Co., Ltd., priority 2005, dated 2013)

What was measured:
[1] = tested on: Helicoverpa armigera; test: Test Example 4: pesticidal effect against Helicoverpa armigera, cabbage leaf disk; assay type: in vivo; details: 100 ppm; third instar larva on cabbage leaf disk; three days after treatment, 25° C.
Source text: A cabbage leaf disk having a diameter of 2.8 cm was placed is in a plastic cup. Test compounds, which had been diluted to a predetermined concentration by the addition of a 50% aqueous acetone solution (Tween 20, 0.05% added), were spreaded over the cabbage leaf disk by means of a spray gun, and the cabbage leaf disk was then air dried. A larva at the third instar of Helicoverpa armigera was released in the cup. The cup was then lidded, and the larva was reared in the temperature-controlled room (25° C.). […] The test was repeated 5 times. Further, the death rate of the larvae were calculated in the same manner as in Test Example 1.

[2] = tested on: Tenebrio molitor L; details: WO 2004/060065; cited from earlier work
[3] = tested on: Plutella xylostella L larvae; details: WO 2004/060065; cited from earlier work
[4] = tested on: larvae of Helicoverpa zea; details: Applied and Environmental Microbiology (1995), 61(12), 4429-35; cited from earlier work

| Compound | death rate of larvae [1] | insecticidal activity against Tenebrio molitor L [2] | insecticidal activity against Plutella xylostella L larvae [3] | insecticidal activity against larvae of Helicoverpa zea [4] |
| --- | --- | --- | --- | --- |
| CC1(COC(=O)C2CCC2)C(OC(=O)C2CCC2)CCC2(C)C1CC(OC(=O)C1CCC1)C1(C)Oc3cc(-c4cccnc4)oc(=O)c3C(O)C21 (stereo not shown) [Compound 219] | not less than 80% |  |  |  |
| CC(=O)OCC1(C)C(OC(C)=O)CCC2(C)C1CC(OC(C)=O)C1(C)Oc3cc(-c4cccnc4)oc(=O)c3C(O)C21 (stereo not shown) [pyripyropene A] |  | insecticidal activity | insecticidal activity | insecticidal activity |
